According to patent US10011597B2 (APOGLYX AB, priority 2014, dated 2018):

Target: T1, human aquaporin 9 (Homo sapiens, UniProt O43315)
T1 construct: expressed in transfected cells; host or cells: Human AQP9 cell line with tetracycline added to the medium
T1 sequence (O43315 1-295): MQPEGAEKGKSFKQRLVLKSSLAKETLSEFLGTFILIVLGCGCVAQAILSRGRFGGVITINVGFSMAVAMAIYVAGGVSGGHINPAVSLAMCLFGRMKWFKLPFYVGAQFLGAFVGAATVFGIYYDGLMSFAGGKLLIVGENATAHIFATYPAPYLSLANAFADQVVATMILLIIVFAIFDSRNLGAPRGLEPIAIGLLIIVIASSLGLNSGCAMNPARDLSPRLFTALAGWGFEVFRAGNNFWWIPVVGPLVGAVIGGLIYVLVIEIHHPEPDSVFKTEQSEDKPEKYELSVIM
Experiment: Calcein quenching fluostar assay
Format: cell-based
Details: inhibition of human aquaporin 9; Human AQP9 cell line, tetracyclin-induced; 25° C.
Experimental: Calcein Quenching Fluostar Assay
A calcein quenching fluostar assay was performed in order to investigate the biological activity of the newly synthesized examples 1 to 57. This type of assay is disclosed in J. Biol. Chem., 2011, 286, 44319-44325 and Am. J. Physiol. Renal Physiol. (2010), 298, F224-230.
1) Two days prior to commencement of the assay, seed 10,000 cells/well of 96 well black clear bottom plate (Greiner Poly-lysin plate). A 1:1 mix of Dulbecco's Modified Eagle's Medium:Nutrient Mixture F-12 (DMEM: F12) was obtained from Gibco. Tetracycline stock of 5 mg/ml in 96% ethanol is used. Medium:DMEM/F12/10% Donor Bovine Serum, Human AQP9 cell line+1:270,000 tetracyclin, mouse AQP9 cell line+1:2,700,000 tetracycline.
2) Day of assay: Flick/slam off the medium and add 50 μl/well of loading solution: 5 ml DMEM/F12/10% Donor Bovine Serum, 25 μl Calcein AM—from freshly dissolved aliquot in 50 μl DMSO (VWR #734-1434), and 100 μl Probenecid.
3) Incubate the well for 90 minutes at 37° C.
4) Perform one wash with 75 μl wash buffer.
5) Add 75 μl of an example compound prepared in wash buffer per well.
Example compounds are prepared in 500 μl U bottom PP plates (NUNC). […] Substance in DMSO are added to row A; 180 μl of wash buffer+1% DMSO are added to rows B-H. 90 μl from row A are transferred and mixed with all other wells (up to row G) to make a 3-fold dilution series.
6) Assay in FLUOstar Optima at 25° C. Settings buffer addition at 135 μl seconds, add 75 μl/well, record time course for 30 seconds, add sucrose buffer 3.6 seconds into recording.
7) Normalization to initial in Excel.
8) Fit to “exponential decay” function in GraphPad Prism 5.0, then arrange half live shrinking values according to wells and fit dose-response curves.

Compound	IC50
O=C(CSc1nnc(-c2ccc(F)cc2)n1C1CC1)Nc1nnc(-c2ccc(F)cc2)s1 [Example 44, 2-{[4-cyclopropyl-5-(4-fluorophenyl)-4H-1,2,4-triazol-3-yl]sulfanyl}-N-[5-(4-fluorophenyl)-1,3,4-thiadiazol-2-yl]acetamide]	168 nM
CCn1c(SCC(=O)Nc2nnc(-c3ccc(F)cc3)s2)nnc1-c1ccccc1F [Example 27, 2-{[4-Ethyl-5-(2-fluorophenyl)-4H-1,2,4-triazol-3-yl]sulfanyl}-N-[5-(4-fluorophenyl)-1,3,4-thiadiazol-2-yl]acetamide]	366 nM
Cn1c(SCC(=O)Nc2nnc(-c3ccccc3F)s2)nnc1-c1ccc(F)cc1 [Example 8, 2-{[5-(4-Fluorophenyl)-4-methyl-4H-1,2,4-triazole-3-yl]sulfanyl}-N-[5-(2-fluorophenyl)-1,3,4-thiadizole-2-yl]-acetamide]	157 nM
CCn1c(SCC(=O)Nc2nnc(-c3ccc(C#N)cc3)s2)nnc1-c1ccc(F)cc1 [Example 47, N-[5-(4-cyanophenyl)-1,3,4-thiadiazol-2-yl]-2-{[4-ethyl-5-(4-fluorophenyl)-4H-1,2,4-triazol-3-yl]sulfanyl}acetamide]	114 nM
CCn1c(SCC(=O)Nc2nnc(-c3ccc(F)cc3)s2)nnc1-c1ccc(F)cc1 [Example 12, 2-{[4-Ethyl-5-(4-fluorophenyl)-4H-1,2,4-triazol-3-yl]sulfanyl}-N-[5-(4-fluorophenyl)-1,3,4-thiadiazol-2-yl]acetamide]	56 nM
CCn1c(SCC(=O)Nc2nnc(-c3ccc(F)cc3)s2)nnc1-c1ccc(OC)cc1 [Example 26, 2-{[4-Ethyl-5-(4-methoxyphenyl)-4H-1,2,4-triazol-3-yl]sulfanyl}-N-[5-(4-fluorophenyl)-1,3,4-thiadiazol-2-yl]acetamide]	477 nM
CCn1c(SC(C)C(=O)Nc2nnc(-c3ccc(OC)cc3)s2)nnc1-c1ccc(F)cc1 (stereo not shown) [Example 35, 2-{[4-Ethyl-5-(4-fluorophenyl)-4H-1,2,4-triazol-3-yl]sulfanyl}-N-[5(4-methoxyphenyl)-1,3,4-thiadiazol-2-yl]propanamide]	301 nM
